According to patent US10040781B2, “Tank-binding kinase inhibitor compounds” (Gilead Sciences, Inc., priority 2014, dated 2018):
Like-named read-outs stand apart in the source and are kept apart here.

Assays:
TBK1 = TBK1 (Homo sapiens (Human), UniProt Q9UHD2); assay: TBK1 TR-FRET enzymatic assay;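 further: phosphorylation of a biotinylated Ser/Thr peptide by purified full-length recombinant TBK1, read by TR-FRET after 240 min at 25 °C, IC50 is the geometric mean of at least four runs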
IKKε = IKKε (Homo sapiens (Human), UniProt Q14164); assay: IKKε TR-FRET enzymatic assay; assay type: biochemical; settings: read-out: IKKe IC50
Sequence of IKKε (Q14164 whole entry): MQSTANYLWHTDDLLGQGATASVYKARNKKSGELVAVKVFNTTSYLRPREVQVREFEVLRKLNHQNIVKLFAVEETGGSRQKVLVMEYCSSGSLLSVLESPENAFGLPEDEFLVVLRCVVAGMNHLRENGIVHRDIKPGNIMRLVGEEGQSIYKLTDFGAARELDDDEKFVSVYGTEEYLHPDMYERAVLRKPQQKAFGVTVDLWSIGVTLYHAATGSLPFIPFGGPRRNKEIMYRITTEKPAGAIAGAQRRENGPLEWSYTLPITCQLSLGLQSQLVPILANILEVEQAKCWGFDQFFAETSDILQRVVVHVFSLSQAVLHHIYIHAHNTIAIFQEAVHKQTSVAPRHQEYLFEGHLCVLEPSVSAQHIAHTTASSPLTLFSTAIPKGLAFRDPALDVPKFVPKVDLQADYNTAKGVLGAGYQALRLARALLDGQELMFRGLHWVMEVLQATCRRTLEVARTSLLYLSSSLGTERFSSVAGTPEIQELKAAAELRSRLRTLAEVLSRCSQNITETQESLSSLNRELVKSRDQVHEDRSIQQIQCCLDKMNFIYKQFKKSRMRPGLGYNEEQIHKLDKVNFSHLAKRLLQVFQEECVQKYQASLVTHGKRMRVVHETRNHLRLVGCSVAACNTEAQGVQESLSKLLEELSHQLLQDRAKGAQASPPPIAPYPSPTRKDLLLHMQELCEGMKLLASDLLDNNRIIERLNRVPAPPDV

hJAK2 = hJAK2 (Homo sapiens (Human), UniProt O60674); assay: hJAK2 LANCE TR-FRET enzymatic assay; assay type: biochemical; settings: read-out: JAK2 IC50
Sequence of hJAK2 (O60674 whole entry): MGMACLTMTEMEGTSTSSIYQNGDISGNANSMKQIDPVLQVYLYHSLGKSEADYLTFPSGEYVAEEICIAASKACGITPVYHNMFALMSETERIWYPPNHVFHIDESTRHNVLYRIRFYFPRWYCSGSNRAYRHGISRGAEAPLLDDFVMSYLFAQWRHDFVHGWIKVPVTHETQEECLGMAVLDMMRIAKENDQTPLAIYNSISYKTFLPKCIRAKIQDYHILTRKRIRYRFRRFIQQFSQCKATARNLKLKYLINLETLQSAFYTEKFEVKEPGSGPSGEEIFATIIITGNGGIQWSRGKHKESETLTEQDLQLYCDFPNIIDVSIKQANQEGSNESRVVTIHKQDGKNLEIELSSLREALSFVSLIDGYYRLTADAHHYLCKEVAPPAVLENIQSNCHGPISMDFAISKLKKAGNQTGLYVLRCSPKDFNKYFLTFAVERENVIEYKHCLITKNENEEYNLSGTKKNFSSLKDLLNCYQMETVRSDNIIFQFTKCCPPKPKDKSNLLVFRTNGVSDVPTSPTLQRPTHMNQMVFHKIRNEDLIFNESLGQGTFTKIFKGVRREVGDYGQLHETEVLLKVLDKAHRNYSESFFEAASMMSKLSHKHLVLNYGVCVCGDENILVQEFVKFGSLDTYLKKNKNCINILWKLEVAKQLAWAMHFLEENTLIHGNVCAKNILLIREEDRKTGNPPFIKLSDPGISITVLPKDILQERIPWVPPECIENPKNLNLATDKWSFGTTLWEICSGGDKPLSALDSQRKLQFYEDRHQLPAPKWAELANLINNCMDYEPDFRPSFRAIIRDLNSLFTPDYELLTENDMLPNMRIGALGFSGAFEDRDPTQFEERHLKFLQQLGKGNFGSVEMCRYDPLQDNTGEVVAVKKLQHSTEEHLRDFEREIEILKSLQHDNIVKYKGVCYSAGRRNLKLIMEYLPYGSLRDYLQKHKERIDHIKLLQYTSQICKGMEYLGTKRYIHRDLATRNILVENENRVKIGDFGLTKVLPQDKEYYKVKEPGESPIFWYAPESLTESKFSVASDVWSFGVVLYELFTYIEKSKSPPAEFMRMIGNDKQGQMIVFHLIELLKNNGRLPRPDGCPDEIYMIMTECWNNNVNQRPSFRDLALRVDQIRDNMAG

[1] = TR-FRET, 2×Km ATP, geometric mean of minimum four determinations

Sequence of TBK1 (Q9UHD2 whole entry): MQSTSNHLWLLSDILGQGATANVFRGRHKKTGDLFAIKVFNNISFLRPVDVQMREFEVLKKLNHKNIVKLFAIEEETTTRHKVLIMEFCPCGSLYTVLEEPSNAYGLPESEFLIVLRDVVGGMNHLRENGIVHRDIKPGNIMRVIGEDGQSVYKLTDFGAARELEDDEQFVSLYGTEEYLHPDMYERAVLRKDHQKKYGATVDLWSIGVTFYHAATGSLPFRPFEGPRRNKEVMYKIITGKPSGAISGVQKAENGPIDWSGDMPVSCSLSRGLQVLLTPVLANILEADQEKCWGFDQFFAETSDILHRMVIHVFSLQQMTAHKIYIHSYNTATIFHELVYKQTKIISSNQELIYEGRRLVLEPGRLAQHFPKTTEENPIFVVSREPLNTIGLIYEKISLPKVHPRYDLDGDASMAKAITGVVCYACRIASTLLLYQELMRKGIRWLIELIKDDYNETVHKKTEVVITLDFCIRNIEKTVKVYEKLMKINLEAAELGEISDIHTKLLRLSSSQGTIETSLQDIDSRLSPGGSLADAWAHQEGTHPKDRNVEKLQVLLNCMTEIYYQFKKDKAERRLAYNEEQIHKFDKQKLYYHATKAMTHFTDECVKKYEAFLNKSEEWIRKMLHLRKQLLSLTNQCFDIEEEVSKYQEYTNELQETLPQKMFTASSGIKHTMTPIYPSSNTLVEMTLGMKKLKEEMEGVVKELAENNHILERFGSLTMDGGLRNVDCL

Structure (SMILES) | IC50 (TBK1) [nM] | IC50 (IKKε) [nM] | IC50 (hJAK2) [nM] | IC50 (IKKε; [1]) [nM]
CN1CC[C@H](Oc2ccc(Nc3ncnc(-c4ccc(O[C@H]5CCN(C(=O)[C@@H](O)CO)C[C@H]5F)c(C#N)c4)n3)cc2)[C@H](F)C1 [Example 398, 2-(((3R,4S)-1-((S)-2,3-dihydroxypropanoyl)-3-fluoropiperidin-4-yl)oxy)-5-(4-((4-(((3R,4S)-3-fluoro-1-methylpiperidin-4-yl)oxy)phenyl)amino)-1,3,5-triazin-2-yl)benzonitrile] | 3 | 1 | 763 | –
COc1cc(Nc2ncnc(-c3ccc(N4C[C@H](O)CCC4=O)c(C#N)c3)n2)ccc1N1CCN(C2COC2)CC1 [Example 399, (R)-2-(5-hydroxy-2-oxopiperidin-1-yl)-5-(4-((3-methoxy-4-(4-(oxetan-3-yl)piperazin-1-yl)phenyl)amino)-1,3,5-triazin-2-yl)benzonitrile] | 152 | – | 174 | 270
C[C@H](O)C(=O)N1CC[C@H](Oc2ccc(-c3ncnc(Nc4ccc(O[C@H]5CCN(C)C[C@H]5F)cc4)n3)cc2C#N)[C@H](F)C1 [Example 400, 2-(((3R,4S)-3-fluoro-1-((S)-2-hydroxypropanoyl)piperidin-4-yl)oxy)-5-(4-((4-(((3R,4S)-3-fluoro-1-methylpiperidin-4-yl)oxy)phenyl)amino)-1,3,5-triazin-2-yl)benzonitrile] | 3 | – | ≥ 1000 | 1
COCC(=O)N1CC[C@H](Oc2ccc(-c3ncnc(Nc4ccc(N5CCN(C6COC6)CC5)c(F)c4)n3)cc2C#N)[C@H](F)C1 [Example 402, 2-(((3R,4S)-3-fluoro-1-(2-methoxyacetyl)piperidin-4-yl)oxy)-5-(4-((3-fluoro-4-(4-(oxetan-3-yl)piperazin-1-yl)phenyl)amino)-1,3,5-triazin-2-yl)benzonitrile] | 3 | – | ≥ 1000 | 3
CN1C(=O)CC[C@H]1C(=O)N1CC[C@H](Oc2ccc(-c3ncnc(Nc4ccc(N5CCN(C6COC6)CC5)cc4)n3)cc2C#N)[C@H](F)C1 [Example 407, 2-(((3R,4S)-3-fluoro-1-((S)-1-methyl-5-oxopyrrolidine-2-carbonyl)piperidin-4-yl)oxy)-5-(4-((4-(4-(oxetan-3-yl)piperazin-1-yl)phenyl)amino)-1,3,5-triazin-2-yl)benzonitrile] | 165 | – | ≥ 1000 | 165
CN1C(=O)CC[C@H]1C(=O)N1CC[C@H](Oc2ccc(-c3ncnc(Nc4ccc(N5CCN(C6COC6)CC5)c(F)c4)n3)cc2C#N)[C@H](F)C1 [Example 408, 2-(((3R,4S)-3-fluoro-1-((S)-1-methyl-5-oxopyrrolidine-2-carbonyl)piperidin-4-yl)oxy)-5-(4-((3-fluoro-4-(4-(oxetan-3-yl)piperazin-1-yl)phenyl)amino)-1,3,5-triazin-2-yl)benzonitrile] | 86 | – | ≥ 1000 | 119
C[C@@H](O)C(=O)N1C[C@@H](F)[C@@H](Oc2ccc(-c3ncnc(Nc4ccc(N5CCN(C6COC6)CC5)cc4)n3)cc2C#N)C[C@@H]1C [Example 412, 2-(((2S,4S,5R)-5-fluoro-1-((R)-2-hydroxypropanoyl)-2-methylpiperidin-4-yl)oxy)-5-(4-((4-(4-(oxetan-3-yl)piperazin-1-yl)phenyl)amino)-1,3,5-triazin-2-yl)benzonitrile] | 43 | – | ≥ 1000 | 202
N#Cc1cc(-c2ncnc(Nc3ccc(N4CCN(C5COC5)CC4)cc3)n2)ccc1O[C@H]1CCN(C(=O)c2cccc(=O)[nH]2)C[C@H]1F [Example 413, 2-(((3R,4S)-3-fluoro-1-(6-oxo-1,6-dihydropyridine-2-carbonyl)piperidin-4-yl)oxy)-5-(4-((4-(4-(oxetan-3-yl)piperazin-1-yl)phenyl)amino)-1,3,5-triazin-2-yl)benzonitrile] | 3 | – | 109 | 2
N#Cc1cc(-c2ncnc(Nc3ccc(N4CCN(C5COC5)CC4)cc3)n2)ccc1O[C@H]1CCN(C(=O)C2CNC(=O)N2)C[C@H]1F (stereo partly drawn) [Example 414, 2-(((3R,4S)-3-fluoro-1-(2-oxoimidazolidine-4-carbonyl)piperidin-4-yl)oxy)-5-(4-((4-(4-(oxetan-3-yl)piperazin-1-yl)phenyl)amino)-1,3,5-triazin-2-yl)benzonitrile] | 3 | – | 163 | 3
C[C@H](O)C(=O)N1C[C@@H](F)[C@@H](Oc2ccc(-c3ncnc(Nc4ccc(N5CCN(C6COC6)CC5)cc4)n3)cc2C#N)C[C@@H]1C [Example 415, 2-(((2S,4S,5R)-5-fluoro-1-((S)-2-hydroxypropanoyl)-2-methylpiperidin-4-yl)oxy)-5-(4-((4-(4-(oxetan-3-yl)piperazin-1-yl)phenyl)amino)-1,3,5-triazin-2-yl)benzonitrile] | 58 | – | ≥ 1000 | 142
N#CCCC(=O)N1CC[C@H](Oc2ccc(-c3ncnc(Nc4ccc(N5CCN(C6COC6)CC5)cc4)n3)cc2C#N)[C@H](F)C1 [Example 417, 2-(((3R,4S)-1-(3-cyanopropanoyl)-3-fluoropiperidin-4-yl)oxy)-5-(4-((4-(4-(oxetan-3-yl)piperazin-1-yl)phenyl)amino)-1,3,5-triazin-2-yl)benzonitrile] | 17 | – | 694 | 79
Cc1nnc(C(=O)N2CC[C@H](Oc3ccc(-c4ncnc(Nc5cnn(C(C)(C)C)c5)n4)cc3C#N)[C@H](F)C2)[nH]1 [Example 418, 5-(4-((1-(tert-butyl)-1H-pyrazol-4-yl)amino)-1,3,5-triazin-2-yl)-2-(((3R,4S)-3-fluoro-1-(5-methyl-4H-1,2,4-triazole-3-carbonyl)piperidin-4-yl)oxy)benzonitrile] | 4 | – | 212 | 2
CC(C)(C)n1cc(Nc2ncnc(-c3ccc(O[C@H]4CCN(C(=O)[C@@H](O)CO)C[C@H]4F)c(C#N)c3)n2)cn1 [Example 419, 5-(4-((1-(tert-butyl)-1H-pyrazol-4-yl)amino)-1,3,5-triazin-2-yl)-2-(((3R,4S)-1-((S)-2,3-dihydroxypropanoyl)-3-fluoropiperidin-4-yl)oxy)benzonitrile] | 2 | – | 228 | 2
CC(C)(C)n1cc(Nc2ncnc(-c3ccc(O[C@H]4CCN(C(=O)CO)C[C@H]4F)c(C#N)c3)n2)cn1 [Example 420, 5-(4-((1-(tert-butyl)-1H-pyrazol-4-yl)amino)-1,3,5-triazin-2-yl)-2-(((3R,4S)-3-fluoro-1-(2-hydroxyacetyl)piperidin-4-yl)oxy)benzonitrile] | 2 | – | 190 | 2
CN1CC(Oc2ccc(-c3ncnc(Nc4ccc(N5CCN(C6COC6)CC5)cc4)n3)cc2C#N)CNC1=O (stereo not drawn) [Example 421, 2-((1-methyl-2-oxohexahydropyrimidin-5-yl)oxy)-5-(4-((4-(4-(oxetan-3-yl)piperazin-1-yl)phenyl)amino)-1,3,5-triazin-2-yl)benzonitrile] | 80 | – | 60 | 156

Next, values leading:

IC50 (TBK1) [nM] | IC50 (IKKε) [nM] | IC50 (hJAK2) [nM] | IC50 (IKKε; [1]) [nM] | Structure (SMILES)
65 | – | 849 | 156 | CN1CC(Oc2ccc(-c3ncnc(Nc4ccc(N5CCN(C6COC6)CC5)cc4)n3)cc2C#N)CCC1=O (stereo not drawn) [Example 422, 2-((1-methyl-6-oxopiperidin-3-yl)oxy)-5-(4-((4-(4-(oxetan-3-yl)piperazin-1-yl)phenyl)amino)-1,3,5-triazin-2-yl)benzonitrile]
16 | – | 681 | 55 | N#Cc1cc(-c2ncnc(Nc3ccc(N4CCN(C5COC5)CC4)cc3)n2)ccc1O[C@H]1CCN(C(=O)N2CC[C@@H](F)C2)C[C@H]1F [Example 423, 2-(((3R,4S)-3-fluoro-1-((R)-3-fluoropyrrolidine-1-carbonyl)piperidin-4-yl)oxy)-5-(4-((4-(4-(oxetan-3-yl)piperazin-1-yl)phenyl)amino)-1,3,5-triazin-2-yl)benzonitrile]
6 | – | ≥ 1000 | 12 | N#Cc1cc(-c2ncnc(Nc3ccc(N4CCN(C5COC5)CC4)cc3)n2)ccc1O[C@H]1CCN(C(=O)N2CCCC2)C[C@H]1F [Example 424, 2-(((3R,4S)-3-fluoro-1-(pyrrolidine-1-carbonyl)piperidin-4-yl)oxy)-5-(4-((4-(4-(oxetan-3-yl)piperazin-1-yl)phenyl)amino)-1,3,5-triazin-2-yl)benzonitrile]
7 | – | 590 | 21 | N#Cc1cc(-c2ncnc(Nc3ccc(N4CCN(C5COC5)CC4)cc3)n2)ccc1O[C@H]1CCN(C(=O)N2CC[C@@H](O)C2)C[C@H]1F [Example 425, 2-(((3R,4S)-3-fluoro-1-((R)-3-hydroxypyrrolidine-1-carbonyl)piperidin-4-yl)oxy)-5-(4-((4-(4-(oxetan-3-yl)piperazin-1-yl)phenyl)amino)-1,3,5-triazin-2-yl)benzonitrile]
79 | – | ≥ 1000 | 201 | N#Cc1cc(-c2ncnc(Nc3ccc(N4CCN(C5COC5)CC4)cc3)n2)ccc1O[C@H]1CCN(C(=O)N2CC[C@H](O)C2)C[C@H]1F [Example 426, 2-(((3R,4S)-3-fluoro-1-((S)-3-hydroxypyrrolidine-1-carbonyl)piperidin-4-yl)oxy)-5-(4-((4-(4-(oxetan-3-yl)piperazin-1-yl)phenyl)amino)-1,3,5-triazin-2-yl)benzonitrile]
31 | – | ≥ 1000 | 74 | COCCNC(=O)N1CC[C@H](Oc2ccc(-c3ncnc(Nc4ccc(N5CCN(C6COC6)CC5)cc4)n3)cc2C#N)[C@H](F)C1 [Example 427, (3R,4S)-4-(2-cyano-4-(4-((4-(4-(oxetan-3-yl)piperazin-1-yl)phenyl)amino)-1,3,5-triazin-2-yl)phenoxy)-3-fluoro-N-(2-methoxyethyl)piperidine-1-carboxamide]
